A compilation of properties of binary mixtures (doi:10.1021/je500765m)

Test: xn = mol fraction of the nth substance listed
Settings: 101 kPa, x2 = 0.0138

Question: With `CCCC[n+]1ccn(C)c1.N#C[C-](C#N)C#N` + O as the molecule, how does the viscosity (293.15 K) read?
Answer: Its viscosity is 32.77 mPa·s.

Question: And the viscosity (298.15 K)?
Answer: The viscosity was 26.47 mPa·s.

Question: And the viscosity (303.15 K)?
Answer: Its viscosity is 21.7 mPa·s.

Question: What about the viscosity (308.15 K) of the same molecule?
Answer: The viscosity was 18.08 mPa·s.

Question: And the viscosity (313.15 K)?
Answer: The viscosity was 15.3 mPa·s.

Question: What about the viscosity (318.15 K) of the same molecule?
Answer: The viscosity was 13.09 mPa·s.

Question: And the viscosity (323.15 K)?
Answer: Its viscosity is 11.32 mPa·s.

Question: And the viscosity (338.15 K)?
Answer: The viscosity was 7.748 mPa·s.

Question: What about the viscosity (343.15 K) of the same molecule?
Answer: Its viscosity is 6.933 mPa·s.

Question: And the viscosity (353.15 K)?
Answer: The viscosity was 5.658 mPa·s.

Question: What about the viscosity (358.15 K) of the same molecule?
Answer: The viscosity was 5.155 mPa·s.

Question: What about the viscosity (363.15 K) of the same molecule?
Answer: The viscosity was 4.718 mPa·s.
